The conditions of data set [1]: measurements made in tissue phantoms; cited from earlier work.
Data set [2] is described as follows: Serial arterial blood sampling and ^17O NMR spectroscopy of serum during and after 1 minute of ^17O2 delivery. The data set is classed as in vivo, pig. As to the method: During imaging, arterial blood sampling was performed on several occasions. An optimized protocol was developed and repeated. An arterial catheter was placed under ultrasound guidance into the femoral artery in the large animal fluoroscopy suite. Approximately 2 cc of blood was collected over 3-5 seconds into each Vacutainer Serum Separator Tube (Becton-Dickinson, #367983) at a rate of one sample each 10 seconds for the first 12 samples and then 60 seconds each for six more samples. Four control samples were taken before the experiment began. The tubes used are designed to reseal immediately after needle puncture. Their ability to remain sealed was tested by taking several tubes at random, creating a strong negative pressure inside the tube with a vacuum pump attached to a needle, and then repeated puncture with larger diameter needles than used for blood sampling. The pressure inside the tubes was checked after over a dozen punctures and had changed less than 10%.
A concern is that water ^17O will exchange with ambient CO2 through bicarbonate ion, a very fast reaction when catalyzed by carbonic anhydrase as in whole blood (Mills G A, Urey H C. The Kinetics of Isotopic Exchange between Carbon Dioxide, Bicarbonate Ion, Carbonate Ion and Water. J Am Chem Soc 1940; 62 (5):1019-1026). To minimize this effect, serum was separated by centrifugation soon after the experiment. Tubes were then frozen at −20 C and kept sealed until the time of analysis. Centrifugation places a gel between the serum and red blood cells in these tubes to fully separate the two. This procedure serves to protect the samples in two ways. […]
An 11.7T Bruker DMX400 Avance Spectrometer equipped with a 1H/X nucleus decoupler probe tuned to ^17O was used to measure 1 mL of each sample loaded into 5 mm ID NMR tubes just before analysis. Spectra were recorded without lock at room temp. […]
Blood sampling was performed during scanning on two separate occasions. […] Serum concentration of H2^17O was calculated by integrating the H2^17O peak obtained by ^17O spectroscopy of the blood samples taken at the given time points. […]

A short description of data set [3]: T1ρ relaxivity in H2^17O doped phosphate buffered saline phantoms. The data set is classed as physicochemical. Conditions: spin lock amplitude 100 Hz, 1.5T. On the procedure:
The ability of the sequence to detect changes in H2^17O concentration was measured by imaging six 15 mL conical tubes filled with 1× Phosphate Buffered Saline doped with H2^17O (Isotec, Miamisberg, Ohio) in steps of 5 mM from 20 mM (natural abundance) to 45 mM. These tubes were sealed and placed into a 9 cm jar filled with water. A receive only loop coil was placed around the jar and used in combination with the body transmit coil. Cross-sectional images of the tubes were acquired with a spin lock amplitude of 100 Hz and spin lock times of 200, 400, 600, 800, and 1000 msec. Imaging parameters are: FoV 90 mm^2, ST 5 mm, TR/TE 10.4/5.2 ms, Matrix 128^2, BW 130 Hz/Px, α=180°.
The concentrations of the phantoms were determined experimentally according to the following equation:
[formula] Where fn is the natural abundance [H2^17O], S is the signal from a pixel or ROI with natural abundance (NA) [H2^17O] or [H2^17O] added (^17O) taken as a proton density weighted image to account for coil sensitivity or when T1ρ pre-encoded (T1ρ). R1ρ is the relaxivity due to H2^17O and TSL is the spin lock time.
FIG. 12 provides cross-sectional images of 15 mL conical tubes filled with phosphate buffered saline and doped with increasing amounts of H2^17O to concentrations from 20 mM (natural abundance) to 45 mM (25 mM added).

The next data set has as its system pig brain. Description: Pulsed ^17O2 inhalation (2 breaths, 40% enrichment) with T1ρ-weighted MRI of pig brain at 1.5 Tesla. It is filed as in vivo. The conditions noted are these: 70 Kg pig; ventricle signal normalized to whole brain. As to the method: To further test the apparatus 100, a 70 Kg Yorkshire pig was anesthetized with intramuscular doses of ketamine (25 mg/Kg) and xylazine (2.5 mg/Kg) and orally intubated. General anesthesia was maintained throughout the experiment with intravenous doses of ketamine (1-2 mg/Kg/hr) and diazepam (0.5-1 mg/Kg/hr). Once placed in the MRI scanner 114 in the prone position, the endotracheal tube was connected to the circuit and mechanical ventilation commenced in volume control mode with a tidal volume of 16.2 ml/Kg, a respiratory rate of 6 breaths/min, I:E ratio of 1:1 and zero end-expiratory pressure. After collecting baseline images on room air, the source valve was switched to 100% O2. After 5 minutes to allow for denitrogenation, further baseline images were obtained while breathing 100% oxygen. […]
Overlay of the signal decreases, ranging from 0% decrease to 1% decrease, an average of 40-50 seconds after the start of the ^17O2 breaths, as determined by indirect T1ρ imaging with a spin-lock sequence. […]
The time course of arterial ^17O2 concentrations, estimated from a model of alveolar gas dilution (appendix), is shown in FIG. 5a. […] Inspiratory tidal volume is measured from the calibrated output of the inhalation pump 102. […]

We go through 2 compounds from patent US8554305B2, “Method and apparatus for providing pulses inhalation of 17O2 for magnetic resonance imaging of cerebral metabolism” (The Trustees of the University of Pennsylvania, priority 2007, dated 2013).

Take `[17OH2]` [H2^17O]: the “R1ρ, relaxation enhancement of tissue due to H2^17O” value in data set [1] was 5.91*10^−6 (μmol/g water)^−1 ms^−1. For the same compound, the “delay between the start of ^17O2 delivery and the start of wash-in in arterial blood” value in data set [2] (19.8 kg pig, second experiment) is around 70 s; in data set [2] (40.8 kg pig, 80% N2/20% O2 (70% ^17O enriched) for 60 seconds, femoral artery serum), “about 90 seconds”. For the same compound, the “time when recirculation begins” value in data set [2] (arterial blood sampling and analysis of mH2^17O content, pigs) lay within 60 to 80 s. Moreover, in data set [3], the “R1ρ(100 Hz)” value was 1.37e-05 mM⁻¹ ms⁻¹.
For `O=O` [^17O2], the “delay of decrease in scaled signal in the cerebral ventricle after the initial inhalation of ^17O2” value in the data set on pig brain is given as “about 110 seconds”.
